The values below come from PMC6639853, “Deciphering Direct and Indirect Effects of Neurokinin B and GnRH in the Brain-Pituitary Axis of Tilapia” (Frontiers in Endocrinology, 2019).

The target in test [1] is T1, huTAC3R (NK3R) (Homo sapiens, UniProt P29371).
T1 construct: host or cells: COS-7
T1 sequence (P29371 1-465): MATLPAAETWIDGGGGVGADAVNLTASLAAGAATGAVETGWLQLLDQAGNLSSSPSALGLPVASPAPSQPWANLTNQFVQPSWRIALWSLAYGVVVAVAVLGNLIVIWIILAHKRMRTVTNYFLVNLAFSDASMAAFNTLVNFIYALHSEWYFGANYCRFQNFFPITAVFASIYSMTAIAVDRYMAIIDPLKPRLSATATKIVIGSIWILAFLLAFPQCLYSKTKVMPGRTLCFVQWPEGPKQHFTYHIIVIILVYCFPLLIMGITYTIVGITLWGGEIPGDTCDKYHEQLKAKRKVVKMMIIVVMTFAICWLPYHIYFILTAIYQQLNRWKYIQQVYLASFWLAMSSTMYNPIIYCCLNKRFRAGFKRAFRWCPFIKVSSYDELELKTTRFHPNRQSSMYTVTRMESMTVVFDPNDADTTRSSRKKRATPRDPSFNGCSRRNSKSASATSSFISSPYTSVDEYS
Nature of the test: CRE-/SRE-Luc receptor transactivation reporter assay in COS-7 cells, human TAC3R. The format is cell-based. As to conditions: mean ± SEM. An excerpt: (§1) Receptor transactivation assays were generally performed according to Biran et al. ([10]). Briefly, in order to study the signaling pathways of the novel fish NKB and NKF analogs, the entire coding sequence of tiTac3ra (GenBank accession no. KF471674), tiTac3rb (GenBank accession no. KF471675), zfTac3ra (GenBank accession no. JF317292) and zfTac3rb (GenBank accession no. JF317293) were inserted into pcDNA3.1 (Invitrogen). To differentiate between the protein kinase A (PKA) and PKC signal transduction pathways, we used a sensitive luciferase (Luc) reporter gene assay. […] The cDNA clone for human TAC3R was obtained from the Missouri S&T cDNA Resource Center (www.cdna.org). Three micrograms of each construct together with three micrograms of a luciferase reporter plasmid were transiently co-transfected into COS-7 cells. […] EC50 values were calculated from dose response curves by means of computerized non-linear curve fitting on baseline-corrected (control) values using Prism version 6 software (GraphPad).
(In general: Reporter assays use an easily measured gene product as a stand-in for the process of interest.)

For test [2], the target named is T2, zfTac3ra (Danio rerio, UniProt H6A6A7).
T2 sequence (H6A6A7 1-399): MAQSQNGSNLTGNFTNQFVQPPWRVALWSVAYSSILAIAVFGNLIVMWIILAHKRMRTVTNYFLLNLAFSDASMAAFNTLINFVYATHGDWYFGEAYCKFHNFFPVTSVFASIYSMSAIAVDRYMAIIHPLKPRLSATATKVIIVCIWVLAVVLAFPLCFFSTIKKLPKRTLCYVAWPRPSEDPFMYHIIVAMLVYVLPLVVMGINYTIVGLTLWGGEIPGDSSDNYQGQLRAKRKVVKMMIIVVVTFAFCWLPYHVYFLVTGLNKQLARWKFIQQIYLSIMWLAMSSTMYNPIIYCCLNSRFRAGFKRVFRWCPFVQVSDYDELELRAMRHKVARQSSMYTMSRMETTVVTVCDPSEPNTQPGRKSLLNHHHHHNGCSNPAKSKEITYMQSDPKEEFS
Nature of the test: CRE-/SRE-Luc receptor transactivation reporter assay in COS-7 cells, zebrafish Tac3ra. As to conditions: mean ± SEM. In kind it is cell-based.
Source text: as §1

Test [3] has as its target T3, zfTac3rb (Danio rerio, UniProt F1R3V0).
T3 sequence (F1R3V0 1-395): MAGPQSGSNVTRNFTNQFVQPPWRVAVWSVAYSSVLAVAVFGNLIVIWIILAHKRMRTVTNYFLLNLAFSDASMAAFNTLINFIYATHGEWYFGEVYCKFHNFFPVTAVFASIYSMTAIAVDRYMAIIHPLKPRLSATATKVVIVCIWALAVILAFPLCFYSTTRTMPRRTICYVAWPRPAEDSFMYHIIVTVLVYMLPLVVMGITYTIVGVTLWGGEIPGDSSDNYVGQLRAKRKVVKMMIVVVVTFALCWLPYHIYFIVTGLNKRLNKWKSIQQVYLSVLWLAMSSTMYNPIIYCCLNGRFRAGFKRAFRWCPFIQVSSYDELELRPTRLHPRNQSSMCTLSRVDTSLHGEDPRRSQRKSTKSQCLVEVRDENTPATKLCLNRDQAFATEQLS
The test can be described thus: CRE-/SRE-Luc receptor transactivation reporter assay in COS-7 cells, zebrafish Tac3rb. In kind it is cell-based. As to conditions: mean ± SEM.
Source text: as §1

Test [4] deals with tiTac3ra (Oreochromis niloticus, UniProt A0A075QPN8). The test can be described thus: cell-based. As to conditions: COS-7 cells, mean ± SEM.
Chain of tiTac3ra (A0A075QPN8 1-415): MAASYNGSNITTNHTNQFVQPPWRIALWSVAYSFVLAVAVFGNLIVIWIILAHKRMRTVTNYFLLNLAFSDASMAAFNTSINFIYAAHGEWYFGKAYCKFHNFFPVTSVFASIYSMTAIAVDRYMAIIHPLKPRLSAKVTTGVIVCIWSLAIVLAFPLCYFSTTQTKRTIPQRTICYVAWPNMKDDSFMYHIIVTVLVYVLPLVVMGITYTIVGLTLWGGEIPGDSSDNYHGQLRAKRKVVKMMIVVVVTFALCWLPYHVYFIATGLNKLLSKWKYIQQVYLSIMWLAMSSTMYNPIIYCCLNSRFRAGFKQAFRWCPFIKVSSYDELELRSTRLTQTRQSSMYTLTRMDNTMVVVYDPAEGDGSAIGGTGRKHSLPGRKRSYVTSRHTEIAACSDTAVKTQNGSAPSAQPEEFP
Source text: (§2) Receptor transactivation assays were generally performed according to Biran et al. ([10]). Briefly, in order to study the signaling pathways of the novel fish NKB and NKF analogs, the entire coding sequence of tiTac3ra (GenBank accession no. KF471674), tiTac3rb (GenBank accession no. KF471675), zfTac3ra (GenBank accession no. JF317292) and zfTac3rb (GenBank accession no. JF317293) were inserted into pcDNA3.1 (Invitrogen). To differentiate between the protein kinase A (PKA) and PKC signal transduction pathways, we used a sensitive luciferase (Luc) reporter gene assay. […] Three micrograms of each construct together with three micrograms of a luciferase reporter plasmid were transiently co-transfected into COS-7 cells. […] EC50 values were calculated from dose response curves by means of computerized non-linear curve fitting on baseline-corrected (control) values using Prism version 6 software (GraphPad).
Test [5] deals with tiTac3rb (Oreochromis niloticus, UniProt A0A075QUD7). Nature of the test: cell-based. As to conditions: COS-7 cells, mean ± SEM.
Chain of tiTac3rb (A0A075QUD7 1-361): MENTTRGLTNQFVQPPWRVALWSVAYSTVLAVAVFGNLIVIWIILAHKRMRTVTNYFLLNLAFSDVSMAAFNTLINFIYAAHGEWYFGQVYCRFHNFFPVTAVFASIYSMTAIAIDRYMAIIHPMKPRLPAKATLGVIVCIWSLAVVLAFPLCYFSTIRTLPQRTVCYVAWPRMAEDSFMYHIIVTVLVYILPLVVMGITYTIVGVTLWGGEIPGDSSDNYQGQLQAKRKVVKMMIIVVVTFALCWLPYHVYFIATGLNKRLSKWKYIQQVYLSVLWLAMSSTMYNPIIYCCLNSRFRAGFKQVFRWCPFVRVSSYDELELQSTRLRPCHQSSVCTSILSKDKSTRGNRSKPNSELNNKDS
Source text: as §2
Test [6] relates to female tilapia. The test can be described thus: In vivo effect on GH, FSH and LH plasma levels (ELISA) after IP injection. Particulars: peptides/analogs 100 μg/kg BW, sGnRHa 10 μg/kg BW. The arrangement: species or system Nile tilapia (O. niloticus). As for the experimental part:
Adult female tilapia (BW 89.29 ± 32.93 g) were injected IP with saline, sGnRH analog ([…]; 10 μg/kg BW; [[…],[…]-Net]-mammalian GnRH; Bachem), tiNKB, tiNKF, or their analogs at 100 μg/kg BW (n = 8 fish per group). The fish were bled from the caudal blood vessels into heparinized syringes 1, 2, 4, 8, and 24 h after injection and blood was centrifuged (3,200 rpm for 30 min at 4°C) to obtain plasma samples, which were stored at -20°C until assayed. This time course is according to standard protocols used previously ([28], [29]) to test the effect of GnRH and other hypothalamic neuropeptides on circulating levels of LH, FSH, and GH in tilapia. Blood samples were collected from the caudal vasculature. Three independent experiments were carried out for the in vivo studies. Levels of LH, FSH, and GH in the plasma were measured by specific competitive ELISAs developed for tilapia ([30], [31]) based on recombinant ([…] or rtiGH. Primary antisera was produced against […]β, or rtGH ([31]), and […]βα ([28]) or rtGH was used for generating the standard curves.
Background: An ELISA detects its analyte on a solid surface through an enzyme-linked reagent.

Where [7] appears, read: CRE-Luc reporter (PKA/cAMP), read-out: EC50 huTAC3R (NK3R) CRE.
The mark [8] stands for this setting: SRE-Luc reporter (PKC/Ca2+), read-out: EC50 huTAC3R (NK3R) SRE.
Where [9] appears, read: CRE-Luc reporter (PKA/cAMP), read-out: EC50 zfTac3ra CRE.
[10] abbreviates: SRE-Luc reporter (PKC/Ca2+), read-out: EC50 zfTac3ra SRE.
The mark [11] stands for this setting: CRE-Luc reporter (PKA/cAMP), read-out: EC50 zfTac3rb CRE.
The mark [12] stands for this setting: SRE-Luc reporter (PKC/Ca2+), read-out: EC50 zfTac3rb SRE.
The mark [13] stands for this setting: EC50 tiTac3ra CRE, CRE-Luc reporter (PKA/cAMP).
[14] abbreviates: EC50 tiTac3ra SRE, SRE-Luc reporter (PKC/Ca2+).
[15] abbreviates: EC50 tiTac3rb CRE, CRE-Luc reporter (PKA/cAMP).
Setting [16] is: EC50 tiTac3rb SRE, SRE-Luc reporter (PKC/Ca2+).

Several values for one entry are separate records, joined by “and”; a condition that tells them apart may be missing. Equal values may be shown once. Read-outs that look alike come from different tables or passages of the source. Starred links: 1 amine or outer side, 2 acyl side, 3 side chain; linkers in the order of their positions; H or OH if unused. Non-standard residues stand in square brackets, D forms with d. Residues, ends and D or L forms follow the SMILES beside them. NMeI = CC[C@H](C)[C@H](NC)C(=O)O; Suc = O=C(CCC(=O)[*:2])[*:1]; NMeV = CN[C@H](C(=O)O)C(C)C

As for `CC[C@H](C)[C@H](NC(=O)[C@H](CC(=O)O)NC(=O)[C@H](Cc1c[nH]cn1)NC(=O)[C@H](CCSC)NC(=O)[C@@H](N)CCC(=O)O)C(=O)N[C@@H](Cc1ccccc1)C(=O)N[C@H](C(=O)NCC(=O)N[C@@H](CC(C)C)C(=O)N[C@@H](CCSC)C(N)=O)C(C)C` [zfNKBa] (H-EMHDIFVGLM-NH2), the EC50 in test [1] (setting [7]) amounted to 1.71 ± 0.32 nM; in test [1] (setting [8]), 0.11 ± 0.3 nM; in test [2] (setting [9]), 26.5 ± 0.38 nM; in test [2] (setting [10]) it was 139.6 ± 0.38 nM; in test [3] (setting [11]), 41.37 ± 0.18 nM; in test [3] (setting [12]), 1.1 ± 0.13 nM.
For `CC[C@H](C)[C@H](NC(=O)[C@H](CC(=O)O)NC(=O)CCC(=O)O)C(=O)N[C@@H](Cc1ccccc1)C(=O)N(C)[C@H](C(=O)NCC(=O)N[C@@H](CC(C)C)C(=O)N[C@@H](CCSC)C(N)=O)[C@@H](C)CC` [tiNKB analog, Succ-Asp-Ile-Phe-N(Me)Ile-Gly-Leu-Met-NH2] (Suc-DIF[NMeI]GLM-NH2), the EC50 in test [1] (setting [8]) came to 210.2 ± 1.18 nM; in test [4] (setting [13]), 12.9 ± 0.36 nM; in test [4] (setting [14]), 12.3 ± 0.29 nM; in test [5] (setting [15]) it was 6.88 ± 0.29 nM; in test [5] (setting [16]), 1.73 ± 0.46 nM.
With `CSCC[C@H](NC(=O)[C@H](CC(C)C)NC(=O)CNC(=O)[C@@H](NC(=O)[C@H](Cc1ccccc1)NC(=O)[C@H](CO)NC(=O)[C@H](CC(=O)O)NC(=O)[C@H](Cc1ccc(O)cc1)NC(=O)[C@H](CC(=O)O)NC(=O)[C@H](CC(C)C)NC(=O)[C@H](CC(=O)O)NC(=O)[C@H](CC(N)=O)NC(=O)[C@@H](N)Cc1ccc(O)cc1)C(C)C)C(N)=O` [tiNKF] (H-YNDLDYDSFVGLM-NH2), the EC50 in test [1] (setting [7]) is 0.51 ± 0.24 nM; in test [1] (setting [8]) it was 32.58 ± 0.05 nM; in test [4] (setting [13]), 3.17 ± 0.18 nM; in test [4] (setting [14]) it was 0.2 nM and 0.24 nM; in test [5] (setting [15]), 2.13 ± 0.42 nM; in test [5] (setting [16]), 0.46 ± 0.49 nM.
On to “[D-Ala^6,Pro^9-Net]-mammalian GnRH [sGnRHa]”, for which the “duration of increased plasma LH post-injection” value in test [6] is on record as “up to 4 h”.
Consider `CC[C@H](C)[C@H](NC(=O)[C@H](CC(=O)O)NC(=O)[C@H](CC(N)=O)NC(=O)[C@@H](N)Cc1ccc(O)cc1)C(=O)N[C@@H](CC(=O)O)C(=O)N[C@@H](Cc1ccc(O)cc1)C(=O)N[C@@H](CC(=O)O)C(=O)N[C@@H](CO)C(=O)N[C@@H](Cc1ccccc1)C(=O)N[C@H](C(=O)NCC(=O)N[C@@H](CC(C)C)C(=O)N[C@@H](CCSC)C(N)=O)C(C)C` [zfNKF] (H-YNDIDYDSFVGLM-NH2), for which the EC50 is 1.25 nM in test [1] (setting [7]); 0.18 ± 0.52 nM in test [1] (setting [8]); 5.47 ± 0.43 nM in test [2] (setting [9]); 0.51 ± 0.36 nM in test [2] (setting [10]); 0.032 nM in test [3] (setting [11]); 25.51 ± 0.23 nM in test [3] (setting [12]).
Turning to `CC[C@H](C)[C@H](NC(=O)[C@H](CC(=O)O)NC(=O)CCC(=O)O)C(=O)N[C@@H](Cc1ccccc1)C(=O)N(C)[C@H](C(=O)NCC(=O)N[C@@H](CC(C)C)C(=O)N[C@@H](CCSC)C(N)=O)C(C)C` [zfNKBa analog, Succ-Asp-Ile-Phe-N(Me)Val-Gly-Leu-Met-NH2] (Suc-DIF[NMeV]GLM-NH2), the EC50 in test [1] (setting [7]) came to 11.5 ± 0.4 nM; in test [1] (setting [8]) it was 0.03 nM; in test [2] (setting [9]) it was 873.2 ± 0.64 nM; in test [2] (setting [10]), 7.88 ± 1.89 nM; in test [3] (setting [11]) it was 0.781 ± 0.15 nM; in test [3] (setting [12]), 5.79 ± 0.52 nM.
Take `CC[C@H](C)[C@H](NC(=O)CNC(=O)[C@@H](NC(=O)[C@@H](N)CO)[C@@H](C)O)C(=O)N[C@@H](CC(N)=O)C(=O)N[C@@H](CCCNC(=N)N)C(=O)N[C@@H](CCC(=O)O)C(=O)N[C@@H](C)C(=O)N[C@@H](Cc1c[nH]cn1)C(=O)N[C@@H](CC(C)C)C(=O)N1CCC[C@H]1C(=O)N[C@@H](Cc1ccccc1)C(=O)N[C@@H](CCCNC(=N)N)C(=O)N1CCC[C@H]1C(=O)N[C@@H](CC(N)=O)C(=O)N[C@@H](CCSC)C(=O)N[C@@H](CC(N)=O)C(=O)N[C@@H](CC(=O)O)C(=O)N[C@H](C(=O)N[C@@H](Cc1ccccc1)C(=O)N[C@H](C(=O)NCC(=O)N[C@@H](CC(C)C)C(=O)N[C@@H](CC(C)C)C(=O)N[C@@H](CCC(=O)O)C(=O)N[C@@H](CCSC)C(=O)N[C@@H](Cc1c[nH]cn1)C(=O)N[C@@H](CC(=O)O)C(=O)N[C@H](C(=O)N[C@@H](Cc1ccccc1)C(=O)N[C@H](C(=O)NCC(=O)N[C@@H](CC(C)C)C(=O)N[C@@H](CCSC)C(N)=O)C(C)C)[C@@H](C)CC)C(C)C)[C@@H](C)CC` [zfNKBb] (H-STGINREAHLPFRPNMNDIFVGLLEMHDIFVGLM-NH2): the concentration for a half-maximal effect (EC50) in test [1] (setting [7]) was 17.4 ± 0.15 nM; in test [1] (setting [8]), 18.7 ± 0.25 nM; in test [2] (setting [9]) it was 0.94 nM and 0.948 nM; in test [2] (setting [10]), 84.98 ± 0.31 nM; in test [3] (setting [11]), 101.4 ± 0.37 nM; in test [3] (setting [12]) it was 17.9 ± 0.43 nM.

The EC50 is the concentration needed to bring the measured effect to its halfway point.
